Results taken from patent US20110039811A1, “TREATING HYPERGLYCEMIA WITH 25-HYDROXYVITAMIN D3” (priority 2008, published 2011).

Columns and labels:
[1] = cited from earlier work
insulin levels = experiment: Clinical trial: insulin levels, week 15 versus week 2; type: in vivo, human; details: for number of individuals with higher insulin levels at week 15 than at week 2 / number of individuals with lower insulin level at week 15 than at week 2: only individuals without a "0.0" insulin result: four for Vitamin D3, five for 25-OH D3, daily or weekly dosing
From the text: (§1) Each group included five subjects.
(§2) Equimolar quantities of both substances were investigated.
(§3) Each dosage was consumed orally at breakfast.
(§4) Rigorous statistical analysis of the results obtained could not be performed for two reasons. First, upon unblinding the data, it was discovered that there was a difference between the groups' baseline glucose levels, and that this difference continued throughout the study. Secondly, upon examining individual's insulin levels, it was noted that a number of them were recorded as “0.0” in at least one visit.

blood glucose = experiment: Clinical trial: fasting glucose levels, week 15 versus week 2; type: in vivo, human; details: for effect on glucose levels (conclusion in words): daily or weekly oral dosing, week 15 vs week 2; for number of individuals with lower glucose levels at week 15 as compared to week 2: of ten individuals receiving daily (20 μg) or weekly (140 μg) oral dosing, postmenopausal women, no rigorous statistics
From the text: as §1, §2, §3, §4

plasma glucose [2] = experiment: Mouse study 1: plasma glucose in a model of muscle hypertrophy; type: in vivo, mice
Procedure: In the first study, the effects of 25-OH D3 on blood glucose were determined in a model of muscle hypertrophy. Briefly, two groups of 10 animals were anesthetized and the left hindlimb of the animals was fixed. All animals received an analgesic. A small incision was made through the skin over the gastrocnemius muscle. The complete gastrocnemius muscle and his tendons were exposed. Both heads of the gastrocnemius muscle were carefully dissected from the underlying intact muscles and care was taken not to rupture nerves and vessels. The skin was closed with a silk suture and the animals were returned into the cages. After recovering from anesthesia the animals could move directly without problems in their cages. Animals were treated for three weeks by gavage with 25-OH D3 at a daily dosage of 50 μg/kg and the control group received vehicle. At the end of the study, blood was taken and plasma glucose concentration was analyzed by a Hitachi 912 Automatic Analyser.

plasma glucose [3] = experiment: Mouse study 2: plasma glucose in a model of muscle atrophy (hindlimb unloading); type: in vivo, mice; details: for change in blood glucose levels versus control with unloading (in words): study 2, Table 2; for Plasma glucose: study 2, hindlimb unloading, 50 μg/kg/bw (combination 50+50) daily by gavage for 3 weeks, control with unloading 12.89, without unloading 12.02
From the text: Briefly, nine month old animals were randomized at the beginning of the study into five groups with 10 animals per group. The animals were placed in special cages for duration of three weeks and their tails were suspended, which leads to skeletal muscle atrophy of the unloaded hindlimbs. An additional group without hindlimb unloading was placed in identical cages in order to detect the effects of unloading. All mice were housed separately and had free access to feed and water ad libidum. All animals were treated daily by gavage throughout the 3 weeks of the experiment: • 1. Control group without unloading received vehicle (gelatine) • 2. Control group with unloading received vehicle (gelatine) • 3. […] The 25-OH D3 group with unloading received 25-OH D3 (50 μg/kg/bw) • 5.

| Molecule | blood concentration at which hypercalcemia may occur ([1]; in vivo) | ability to improve insulin sensitivity (conclusion in words) (insulin levels; compared with Vitamin D3) | number of individuals with higher insulin levels at week 15 than at week 2 (insulin levels) | number of individuals with lower insulin level at week 15 than at week 2 (insulin levels) | effect on glucose levels (conclusion in words) (blood glucose) | number of individuals with lower glucose levels at week 15 as compared to week 2 (blood glucose) | change in plasma glucose compared to control group (in words) (plasma glucose [2]; study 1, Table 1) | Plasma glucose (plasma glucose [2]; study 1, muscle hypertrophy model, 50 μg/kg daily by gavage for three weeks, vehicle control 15.53) | change in blood glucose levels versus control with unloading (in words) (plasma glucose [3]) | Plasma glucose (plasma glucose [3]) | blood concentration of 25-hydroxyvitamin D after ingestion as a dietary supplement ([1]; ingestion of 250 μg/day Vitamin D) |
| --- | --- | --- | --- | --- | --- | --- | --- | --- | --- | --- | --- |
| 25-hydroxyvitamin D | greater than 375 nmol/L | – | – | – | – | – | – | – | – | – | – |
| C=C1CC[C@H](O)C/C1=C/C=C1\CCC[C@]2(C)[C@@H]([C@H](C)CCCC(C)(C)O)CC[C@@H]12 [25-OH D3, 25-hydroxyvitamin D3] | – | better ability to improve insulin sensitivy than does Vitamin D3 | one | four | can lower glucose levels | 6 of 10 | decrease in plasma glucose | 14.65 mmol/L | moderate decrease in blood glucose levels | 12.75 mmol/L | – |
| C=C1CC[C@H](O)C/C1=C/C=C1\CCC[C@]2(C)[C@@H]([C@H](C)CCCC(C)C)CC[C@@H]12 [Vitamin D3, cholecalciferol] | – | – | three | one | can lower glucose levels | 7 | – | – | moderate decrease in blood glucose levels | 12.69 mmol/L | – |
| Vitamin D | – | – | – | – | – | – | – | – | – | – | about 200 nmol/L |
